Measurements as given in patent US20240116985A1, “STAPLED PEPTIDES AND METHODS THEREOF” (priority 2020, published 2024).
Where two headings read alike, the source gives them in different places.

How the values were obtained:
[1] = target: T1, full-length beta-Catenin (Uniprot ID P35222) (Homo sapiens, UniProt P35222); experiment: Fluorescence polarization IC50 (beta-catenin / 5FAM-TCF4 10-53 competition); assay type: binding
T1 construct: 10 nM full-length beta-Catenin (Uniprot ID P35222)
T1 sequence (P35222 1-781): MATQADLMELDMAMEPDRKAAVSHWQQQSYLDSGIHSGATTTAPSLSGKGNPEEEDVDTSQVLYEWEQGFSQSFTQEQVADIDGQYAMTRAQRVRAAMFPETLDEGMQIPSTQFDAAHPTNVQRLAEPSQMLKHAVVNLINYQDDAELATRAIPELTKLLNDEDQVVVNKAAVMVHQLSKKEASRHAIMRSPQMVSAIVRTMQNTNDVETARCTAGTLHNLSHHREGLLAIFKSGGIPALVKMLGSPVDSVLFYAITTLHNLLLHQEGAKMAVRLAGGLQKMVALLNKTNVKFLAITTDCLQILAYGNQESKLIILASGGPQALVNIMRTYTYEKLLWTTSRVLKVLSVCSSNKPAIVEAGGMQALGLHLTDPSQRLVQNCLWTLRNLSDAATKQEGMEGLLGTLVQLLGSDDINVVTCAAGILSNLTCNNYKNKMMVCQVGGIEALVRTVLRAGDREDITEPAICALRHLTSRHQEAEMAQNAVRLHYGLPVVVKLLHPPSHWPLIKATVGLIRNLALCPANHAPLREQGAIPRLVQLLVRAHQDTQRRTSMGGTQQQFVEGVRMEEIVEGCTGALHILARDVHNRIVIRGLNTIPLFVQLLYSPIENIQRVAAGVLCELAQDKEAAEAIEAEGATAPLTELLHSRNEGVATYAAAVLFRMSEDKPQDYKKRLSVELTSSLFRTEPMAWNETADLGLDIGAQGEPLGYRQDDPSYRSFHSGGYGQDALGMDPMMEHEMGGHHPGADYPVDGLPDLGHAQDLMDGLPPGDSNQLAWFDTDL

CHI Log D procedure = assay type: physicochemical; conditions: for CHI Log D: pH 7.4; for chromatographic logD: pH 7.4, CHI Log D
[2] = target: T2, full-length B-Catenin (Uniprot ID P35222) (Homo sapiens, UniProt P35222); experiment: Alphascreen binding assay (beta-catenin / biotin-TCF4 10-53)
T2 construct: 65 nM full-length B-Catenin (Uniprot ID P35222)
T2 sequence (P35222 1-781): T1 sequence (P35222 1-781)
In short: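 Final concentrations: 65 nM full-length human β-catenin plus 10 nM biotin-TCF4(10-53) peptide, test peptide 3-fold from 10 uM to 5 nM, preincubated 15 min at 20 °C in Tris pH 8.0/250 mM NaCl buffer. Nickel-chelate AlphaScreen donor/acceptor beads then added for 60 min in the dark; duplicate reads fitted to 1:1 binding model with Hill slope.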

[3] = Table E2-1, read-out: beta-Catenin FP IC50
[4] = fluorescence polarization, beta-catenin, read-out: FP EC50

SMILES | IC50 [1, 3] | IC50 [1, 4] | CHI Log D (CHI Log D procedure) | EC50 [2] | chromatographic logD (CHI Log D procedure)
CC[C@H](C)[C@H](NC(=O)[C@H](CC(=O)O)NC(=O)[C@H](C)NC(C)=O)C(=O)N[C@]1(C)CCN(C)C(=O)OCC=CCCCCC[C@@](C)(C(=O)N[C@@H](Cc2ccccc2)C(=O)N[C@@H](Cc2c[nH]c3ccccc23)C(=O)N[C@@H](Cc2c[nH]cn2)C(N)=O)NC(=O)[C@H](CCC(N)=O)NC(=O)[C@H](Cc2ccccc2)NC(=O)[C@H](C)NC(=O)[C@H](C)NC(=O)[C@H](CCC(=O)O)NC(=O)[C@H](CC(=O)O)NC1=O [I-66, Ac-Ala-Asp-Ile-RdN-Asp-Glu-Ala-Ala-Phe-Gln-S7-Phe-Trp-His-NH2] | 1090 nM | 1090 nM | 1.259 | 175 nM | –
CC[C@H](C)[C@@H]1NC(=O)[C@H](CC(=O)O)NC(=O)[C@]2(CC=CCCCC3(CCCC=CCCCCCC[C@@](C)(C(=O)N[C@@H](Cc4ccccc4)C(=O)N[C@@H](Cc4c[nH]c5ccccc45)C(=O)N[C@@H](Cc4c[nH]cn4)C(N)=O)NC(=O)[C@H](CCC(N)=O)NC(=O)[C@H](Cc4ccccc4)NC(=O)[C@H](C)NC(=O)[C@H](C)NC(=O)[C@H](CC(=O)O)NC(=O)[C@H](CC(=O)O)NC3=O)NC1=O)CCCN2C(C)=O (stereo partly drawn) [I-174, Ac-PL3-Asp-Ile-B5-Asp-Asp-Ala-Ala-Phe-Gln-S8-Phe-Trp-His-NH2] | 1760 nM | 1760 nM | 2.242 | 116 nM | –
CC(=O)N1CCC[C@]12CC=CCCCC1(CCCC=CCCCCCC[C@@](C)(C(=O)N[C@@H](Cc3ccccc3)C(=O)N[C@@H](Cc3c[nH]c4ccccc34)C(=O)N[C@@H](CCC(N)=O)C(N)=O)NC(=O)[C@H](C(C)C)NC(=O)[C@H](Cc3ccc(C(F)(F)F)cc3)NC(=O)[C@H](C)NC(=O)[C@H](C)NC(=O)[C@H](CC(=O)O)NC(=O)[C@H](CC(=O)O)NC1=O)NC(=O)[C@H](C)NC(=O)[C@H](CC(=O)O)NC2=O (stereo partly drawn) [I-243, Ac-PL3-Asp-Ala-B5-Asp-Asp-Ala-Ala-4F3MeF-Val-S8-Phe-Trp-Gln-NH2] | – | – | 2.098 | 4900 nM | –
CC[C@H](C)[C@H](NC(=O)[C@H](CC(=O)O)NC(=O)[C@H](C)NC(C)=O)C(=O)N[C@]1(C)CCN(C)C(=O)OCC=CCCCCC[C@@](C)(C(=O)N[C@@H](Cc2ccccc2)C(=O)N[C@@H](Cc2c[nH]c3ccccc23)C(=O)N[C@@H](Cc2c[nH]cn2)C(N)=O)NC(=O)[C@H](CCC(N)=O)NC(=O)[C@H](Cc2ccccc2)NC(=O)[C@H](C)NC(=O)[C@H](C)NC(=O)[C@H](CC(=O)O)NC(=O)[C@H](CC(=O)O)NC1=O [I-65, Ac-Ala-Asp-Ile-RdN-Asp-Asp-Ala-Ala-Phe-Gln-S7-Phe-Trp-His-NH2] | – | – | 1.274 | 2080 nM | –
CC(=O)N[C@@H](Cc1ccccc1)C(=O)N[C@@H](CC(=O)O)C(=O)N[C@@H](C)C(=O)N[C@]1(C)CCCCCC=CCOC(=O)N2CC[C@@](C(=O)N[C@@H](Cc3ccccc3)C(=O)N[C@@H](Cc3c[nH]c4ccccc34)C(=O)N[C@@H](CCC(N)=O)C(N)=O)(C2)NC(=O)[C@H](C(C)C)NC(=O)[C@H](Cc2ccccc2)NC(=O)[C@H](C)NC(=O)[C@H](C)NC(=O)[C@H](CC(=O)O)NC(=O)[C@H](CC(=O)O)NC1=O [I-30, Ac-Phe-Asp-Ala-R7-Asp-Asp-Ala-Ala-Phe-Val-PyrS-Phe-Trp-Gln-NH2] | – | – | 1.228 | 8820 nM | –
CC(=O)N[C@@H](Cc1ccccc1)C(=O)N[C@@H](CC(=O)O)C(=O)N[C@@H](C)C(=O)N[C@]1(C)CCCCCCC=CCOC(=O)N2CC[C@@](C(=O)N[C@@H](Cc3ccccc3)C(=O)N[C@@H](Cc3c[nH]c4ccccc34)C(=O)N[C@@H](CCC(N)=O)C(N)=O)(C2)NC(=O)[C@H](C(C)C)NC(=O)[C@H](Cc2ccc3ccccc3c2)NC(=O)[C@H](C)NC(=O)[C@H](C)NC(=O)[C@H](CC(=O)O)NC(=O)[C@H](CC(=O)O)NC1=O [I-113, Ac-Phe-Asp-Ala-R8-Asp-Asp-Ala-Ala-2NapA-Val-PyrS-Phe-Trp-Gln-NH2] | – | – | 1.435 | 6200 nM | –
CC(=O)N1CCC[C@]12CC=CCCCC1(CCCC=CCCCCCC[C@@](C)(C(=O)N[C@@H](Cc3ccc(Cl)cc3)C(=O)N[C@@H](Cc3c[nH]c4ccccc34)C(=O)N[C@@H](CCC(N)=O)C(N)=O)NC(=O)[C@H](C(C)C)NC(=O)[C@H](Cc3ccccc3)NC(=O)[C@H](C)NC(=O)[C@H](C)NC(=O)[C@H](CC(=O)O)NC(=O)[C@H](CC(=O)O)NC1=O)NC(=O)[C@H](C)NC(=O)[C@H](CC(=O)O)NC2=O (stereo partly drawn) [I-313, Ac-PL3-Asp-Ala-B5-Asp-Asp-Ala-Ala-Phe-Val-S8-4C1F-Trp-Gln-NH2] | – | – | 2.159 | 3600 nM | –
CC(=O)N1CCC[C@]12CC=CCCCC1(CCCC=CCCCCCC[C@@](C)(C(=O)N[C@@H](Cc3cccc(C(F)(F)F)c3)C(=O)N[C@@H](Cc3c[nH]c4ccccc34)C(=O)N[C@@H](CCC(N)=O)C(N)=O)NC(=O)[C@H](C(C)C)NC(=O)[C@H](Cc3ccccc3)NC(=O)[C@H](C)NC(=O)[C@H](C)NC(=O)[C@H](CC(=O)O)NC(=O)[C@H](CC(=O)O)NC1=O)NC(=O)[C@H](C)NC(=O)[C@H](CC(=O)O)NC2=O (stereo partly drawn) [I-251, Ac-PL3-Asp-Ala-B5-Asp-Asp-Ala-Ala-Phe-Val-S8-3F3MeF-Trp-Gln-NH2] | – | – | 2.299 | 1200 nM | –
CC(=O)N1CCC[C@]12CC=CCCCC1(CCCC=CCCCCCC[C@@](C)(C(=O)N[C@@H](Cc3ccccc3)C(=O)N[C@@H](Cc3csc4ccccc34)C(=O)N[C@@H](C)C(N)=O)NC(=O)[C@H](CCC(N)=O)NC(=O)[C@H](Cc3ccccc3)NC(=O)[C@H](C)NC(=O)[C@H](C)NC(=O)[C@H](Cc3ccc4ccccc4c3)NC(=O)[C@H](CC(=O)O)NC1=O)NC(=O)[C@H](C)NC(=O)[C@H](CC(=O)O)NC2=O (stereo partly drawn) [I-296, Ac-PL3-Asp-Ala-B5-Asp-2NapA-Ala-Ala-Phe-Gln-S8-Phe-BztA-Ala-NH2] | – | – | – | 1910 nM | 2.94
CC(=O)N1CCC[C@]12CC=CCCCC1(CCCC=CCCCCCC[C@@](C)(C(=O)N[C@@H](Cc3cccc(C(F)(F)F)c3)C(=O)N[C@@H](Cc3c[nH]c4ccccc34)C(=O)N[C@@H](CCC(N)=O)C(N)=O)NC(=O)[C@H](C(C)C)NC(=O)[C@H](Cc3ccccc3)NC(=O)[C@H](C)NC(=O)[C@H](C)NC(=O)[C@H](CC(=O)O)NC(=O)[C@H](CC(=O)O)NC1=O)NC(=O)[C@H](C)NC(=O)[C@H](CC(=O)O)NC2=O (stereo partly drawn) [I-249, Ac-PL3-Asp-Ala-B5-Asp-Asp-Ala-Ala-Phe-Val-S8-3F3MeF-Trp-Gln-NH2] | – | – | 2.263 | 2830 nM | –
CC(=O)N1CCC[C@]12CC=CCCCC1(CCCC=CCCCCCC[C@@](C)(C(=O)N[C@@H](Cc3ccccc3)C(=O)N[C@@H](Cc3ccc4ccccc4c3)C(=O)N[C@@H](C)C(N)=O)NC(=O)[C@H](C)NC(=O)[C@H](Cc3ccc(F)c(F)c3)NC(=O)[C@H](C)NC(=O)[C@H](C)NC(=O)[C@H](CCC(=O)O)NC(=O)[C@H](CC(=O)O)NC1=O)NC(=O)[C@H](C)NC(=O)[C@H](CC(=O)O)NC2=O (stereo partly drawn) [I-185, Ac-PL3-Asp-Ala-B5-Asp-Glu-Ala-Ala-34FF-Ala-S8-Phe-2NapA-Ala-NH2] | – | – | – | 2660 nM | 2.3
